# Reference: article PMC11206519, “Multi-Endpoint Toxicological Assessment of Chrysin Loaded Oil-in-Water Emulsion System in Different Biological Models” (Nanomaterials, 2024)
# Test system: D. melanogaster trans-heterozygous mwh+/+flr3 larvae of the HB cross
# Test: SMART wing spot test, anti-mutagenicity, HB cross
# Experimental: The somatic mutation and recombination test, or the wing spot test, using D. melanogaster was employed as an in vivo system to assess the mutagenicity and anti-mutagenicity of chrysin-ES. Two different crosses were conducted: (i) a standard cross (ST) and (ii) a high bioactivation cross (HB). The standard cross larvae were obtained from virgin female of flr3/TM3, Ser crossed with males of mwh/mwh, while the HB cross larvae expressing cytochrome P450 enzymes involved in xenobiotic biotransformation were obtained from virgin females of ORR/ORR; flr^3/In (3LR) TM3, ri p^psep l (3)89Aa bx^34e e Bd^s crossed with males of mwh/mwh. The flies were cultured at a constant temperature of 25 ± 1 °C and 60–70% RH at photoperiod 12:12 (light/dark). To evaluate the mutagenicity of chrysin and chrysin-ES, a hundred larva F1 progenies derived from the above crossing were fed with instant Drosophila medium (Formula 4-24®), Carolina, Burlington, NC, USA) containing chrysin or chrysin-ES (20–120 µg/mL). DI was used as a negative control, while 20 mM urethane (URE) was used as a positive control. The larvae were reared on each medium until pupation at 25 °C. After that, forty wings of surviving flies in each group were collected for mutant analysis. The mutant spots on the wings, including small single spots, large single spots, and twin spots, were counted. The statistical significance was calculated as previously described by Frei and Würgler.
# Furthermore, the anti-mutagenicity of the samples was performed by a similar procedure as mentioned above.
# [1] = NMU (sodium nitrite 36 mM: methylurea 10 mM) + 20 μg/mL
smiles,measurement,setting,value
"O=c1cc(-c2ccccc2)oc2cc(O)cc(O)c12 [Chrysin, 5,7-dihydroxyflavone]",Inhibition (%),EMS 5 mM + 20 μg/mL,25%
same,Inhibitory Classification,EMS 5 mM + 20 μg/mL,Weak
same,"Mutant spots per individual (number of spots), Large Single",EMS 5 mM + 20 μg/mL,1.63 (65)
same,"Mutant spots per individual (number of spots), Small Single",EMS 5 mM + 20 μg/mL,5.3 (212)
same,"Mutant spots per individual (number of spots), Total",EMS 5 mM + 20 μg/mL,7.80 (312)
same,"Mutant spots per individual (number of spots), Twin",EMS 5 mM + 20 μg/mL,0.88 (35)
same,Inhibition (%),EMS 5 mM + 40 μg/mL,31%
same,Inhibitory Classification,EMS 5 mM + 40 μg/mL,Weak
same,"Mutant spots per individual (number of spots), Large Single",EMS 5 mM + 40 μg/mL,0.78 (31)
same,"Mutant spots per individual (number of spots), Small Single",EMS 5 mM + 40 μg/mL,6.03 (241)
same,"Mutant spots per individual (number of spots), Total",EMS 5 mM + 40 μg/mL,7.13 (285)
same,"Mutant spots per individual (number of spots), Twin",EMS 5 mM + 40 μg/mL,0.33 (13)
same,Inhibition (%),EMS 5 mM + 80 μg/mL,60%
same,Inhibitory Classification,EMS 5 mM + 80 μg/mL,Moderate
same,"Mutant spots per individual (number of spots), Large Single",EMS 5 mM + 80 μg/mL,0.73 (29)
same,"Mutant spots per individual (number of spots), Small Single",EMS 5 mM + 80 μg/mL,3.23 (129)
same,"Mutant spots per individual (number of spots), Total",EMS 5 mM + 80 μg/mL,4.18 (167)
same,"Mutant spots per individual (number of spots), Twin",EMS 5 mM + 80 μg/mL,0.23 (9)
same,Inhibition (%),EMS 5 mM + 120 μg/mL,76%
same,Inhibitory Classification,EMS 5 mM + 120 μg/mL,Strong
same,"Mutant spots per individual (number of spots), Large Single",EMS 5 mM + 120 μg/mL,0.20 (8)
same,"Mutant spots per individual (number of spots), Small Single",EMS 5 mM + 120 μg/mL,2.20 (88)
same,"Mutant spots per individual (number of spots), Total",EMS 5 mM + 120 μg/mL,2.53 (101)
same,"Mutant spots per individual (number of spots), Twin",EMS 5 mM + 120 μg/mL,0.13 (5)
same,Inhibition (%),MMC 0.05 mM + 20 μg/mL,5%
same,Inhibitory Classification,MMC 0.05 mM + 20 μg/mL,Negligible
same,"Mutant spots per individual (number of spots), Large Single",MMC 0.05 mM + 20 μg/mL,0.85 (34)
same,"Mutant spots per individual (number of spots), Small Single",MMC 0.05 mM + 20 μg/mL,3.70 (148)
same,"Mutant spots per individual (number of spots), Total",MMC 0.05 mM + 20 μg/mL,4.65 (186)
same,"Mutant spots per individual (number of spots), Twin",MMC 0.05 mM + 20 μg/mL,0.10 (4)
same,Inhibition (%),MMC 0.05 mM + 40 μg/mL,60%
same,"Mutant spots per individual (number of spots), Large Single",MMC 0.05 mM + 40 μg/mL,0.18 (7)
same,"Mutant spots per individual (number of spots), Small Single",MMC 0.05 mM + 40 μg/mL,1.63 (65)
same,"Mutant spots per individual (number of spots), Total",MMC 0.05 mM + 40 μg/mL,1.93 (77)
same,"Mutant spots per individual (number of spots), Twin",MMC 0.05 mM + 40 μg/mL,0.13 (5)
same,Inhibition (%),MMC 0.05 mM + 80 μg/mL,79%
same,Inhibitory Classification,MMC 0.05 mM + 80 μg/mL,Strong
same,"Mutant spots per individual (number of spots), Large Single",MMC 0.05 mM + 80 μg/mL,0.08 (3)
same,"Mutant spots per individual (number of spots), Small Single",MMC 0.05 mM + 80 μg/mL,0.98 (39)
same,"Mutant spots per individual (number of spots), Total",MMC 0.05 mM + 80 μg/mL,1.05 (42)
same,"Mutant spots per individual (number of spots), Twin",MMC 0.05 mM + 80 μg/mL,0 (0)
same,Inhibition (%),MMC 0.05 mM + 120 μg/mL,88%
same,Inhibitory Classification,MMC 0.05 mM + 120 μg/mL,Strong
same,"Mutant spots per individual (number of spots), Large Single",MMC 0.05 mM + 120 μg/mL,0.03 (1)
same,"Mutant spots per individual (number of spots), Small Single",MMC 0.05 mM + 120 μg/mL,0.55 (22)
same,"Mutant spots per individual (number of spots), Total",MMC 0.05 mM + 120 μg/mL,0.58 (23)
same,"Mutant spots per individual (number of spots), Twin",MMC 0.05 mM + 120 μg/mL,0 (0)
same,Inhibition (%),[1],54%
same,Inhibitory Classification,[1],Moderate
same,"Mutant spots per individual (number of spots), Large Single",[1],0.09 (3)
same,"Mutant spots per individual (number of spots), Small Single",[1],0.78 (25)
same,"Mutant spots per individual (number of spots), Total",[1],0.88 (28)
same,"Mutant spots per individual (number of spots), Twin",[1],0 (0)
same,Inhibitory Classification,"NMU (sodium nitrite 36 mM: methylurea 10 mM) + 20 μg/mL, listed as chrysin",moderate (41–60%)
same,Inhibition (%),NMU + 40 μg/mL,80%
same,Inhibitory Classification,NMU + 40 μg/mL,Strong
same,"Mutant spots per individual (number of spots), Large Single",NMU + 40 μg/mL,0.05 (2)
same,"Mutant spots per individual (number of spots), Small Single",NMU + 40 μg/mL,0.30 (12)
same,"Mutant spots per individual (number of spots), Total",NMU + 40 μg/mL,0.38 (15)
same,"Mutant spots per individual (number of spots), Twin",NMU + 40 μg/mL,0.03 (1)
same,Inhibition (%),NMU + 80 μg/mL,81%
same,Inhibitory Classification,NMU + 80 μg/mL,Strong
same,"Mutant spots per individual (number of spots), Large Single",NMU + 80 μg/mL,0.04 (1)
same,"Mutant spots per individual (number of spots), Small Single",NMU + 80 μg/mL,0.32 (9)
same,"Mutant spots per individual (number of spots), Total",NMU + 80 μg/mL,0.36 (10)
same,"Mutant spots per individual (number of spots), Twin",NMU + 80 μg/mL,0 (0)
same,Inhibition (%),NMU + 120 μg/mL,95%
same,Inhibitory Classification,NMU + 120 μg/mL,Strong
same,"Mutant spots per individual (number of spots), Large Single",NMU + 120 μg/mL,0.05 (2)
same,"Mutant spots per individual (number of spots), Small Single",NMU + 120 μg/mL,0.05 (2)
same,"Mutant spots per individual (number of spots), Total",NMU + 120 μg/mL,0.10 (4)
same,"Mutant spots per individual (number of spots), Twin",NMU + 120 μg/mL,0 (0)
same,Inhibition (%),URE 20 mM + 20 μg/mL,84%
same,Inhibitory Classification,URE 20 mM + 20 μg/mL,Strong
same,"Mutant spots per individual (number of spots), Large Single",URE 20 mM + 20 μg/mL,0.15 (6)
same,"Mutant spots per individual (number of spots), Small Single",URE 20 mM + 20 μg/mL,1.55 (62)
same,"Mutant spots per individual (number of spots), Total",URE 20 mM + 20 μg/mL,1.70 (68)
same,"Mutant spots per individual (number of spots), Twin",URE 20 mM + 20 μg/mL,0 (0)
same,Inhibition (%),URE 20 mM + 40 μg/mL,84%
same,Inhibitory Classification,URE 20 mM + 40 μg/mL,Strong
same,"Mutant spots per individual (number of spots), Large Single",URE 20 mM + 40 μg/mL,0 (0)
same,"Mutant spots per individual (number of spots), Small Single",URE 20 mM + 40 μg/mL,1.75 (70)
same,"Mutant spots per individual (number of spots), Total",URE 20 mM + 40 μg/mL,1.75 (70)
same,"Mutant spots per individual (number of spots), Twin",URE 20 mM + 40 μg/mL,0 (0)
same,Inhibition (%),URE 20 mM + 80 μg/mL,92%
same,Inhibitory Classification,URE 20 mM + 80 μg/mL,Strong
same,"Mutant spots per individual (number of spots), Large Single",URE 20 mM + 80 μg/mL,0.03 (1)
same,"Mutant spots per individual (number of spots), Small Single",URE 20 mM + 80 μg/mL,0.88 (35)
same,"Mutant spots per individual (number of spots), Total",URE 20 mM + 80 μg/mL,0.90 (36)
same,"Mutant spots per individual (number of spots), Twin",URE 20 mM + 80 μg/mL,0 (0)
same,Inhibition (%),URE 20 mM + 120 μg/mL,89%
same,Inhibitory Classification,URE 20 mM + 120 μg/mL,Strong
same,"Mutant spots per individual (number of spots), Large Single",URE 20 mM + 120 μg/mL,0.08 (3)
same,"Mutant spots per individual (number of spots), Small Single",URE 20 mM + 120 μg/mL,1.08 (43)
same,"Mutant spots per individual (number of spots), Total",URE 20 mM + 120 μg/mL,1.18 (47)
same,"Mutant spots per individual (number of spots), Twin",URE 20 mM + 120 μg/mL,0.03 (1)
